Legend:
Assay in all cases: relative viability (nuclei count vs DMSO), 5 days (fraction); higher = more cells survive
SW 900 = test system: SW 900
Method in brief: (§1)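 Five library-drug doses in √10 steps were combined with a fixed anchor-drug dose, or a single drug was given alone, by pin tool to lung cancer cell lines in 1536-well plates the day after seeding. Nuclei were stained and counted after 5 days. Relative viability is the nuclei count in treated wells over that in vehicle wells, taken as the median of duplicate plates.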

NCI-H2085 = test system: NCI-H2085
Method in brief: as §1

NCI-H358 = test system: NCI-H358
Method in brief: as §1

NCI-H1944 = test system: NCI-H1944
Method in brief: as §1

LC-2-ad = test system: LC-2-ad
Method in brief: as §1

HOP-62 = test system: HOP-62
Method in brief: as §1

LU99A = test system: LU99A
Method in brief: as §1

UMC-11 = test system: UMC-11
Method in brief: as §1

NCI-H2009 = test system: NCI-H2009
Method in brief: as §1

NCI-H1666 = test system: NCI-H1666
Method in brief: as §1

NCI-H1793 = test system: NCI-H1793
Method in brief: as §1

A-427 = test system: A-427
Method in brief: as §1

LXF-289 = test system: LXF-289
Method in brief: as §1

NCI-H460 = test system: NCI-H460
Method in brief: as §1

EPLC-272H = test system: EPLC-272H
Method in brief: as §1

NCI-H2170 = test system: NCI-H2170
Method in brief: as §1

COR-L 105 = test system: COR-L 105
Method in brief: as §1

HCC-78 = test system: HCC-78
Method in brief: as §1

SK-LU-1 = test system: SK-LU-1
Method in brief: as §1

NCI-H1915 = test system: NCI-H1915
Method in brief: as §1

HCC-366 = test system: HCC-366
Method in brief: as §1

Compound: COc1cc2nccc(Oc3ccc(NC(=O)Nc4cc(C)on4)c(Cl)c3)c2cc1OC [Tivozanib] + COc1cc2c(Oc3ccc(NC(=O)C4(C(=O)Nc5ccc(F)cc5)CC4)cc3F)ccnc2cc1OCCCN1CCOCC1 [Foretinib] (partner 0.25 µM)
- relative viability (SW 900; first compound 0.005 µM): 0.806
- relative viability (SW 900; first compound 0.01581 µM): 0.884
- relative viability (SW 900; first compound 0.05 µM): 0.733
- relative viability (SW 900; first compound 0.1581 µM): 0.697
- relative viability (SW 900; first compound 0.5 µM): 0.924
- relative viability (NCI-H2085; first compound 0.005 µM): 0.883
- relative viability (NCI-H2085; first compound 0.01581 µM): 0.884
- relative viability (NCI-H2085; first compound 0.05 µM): 0.831
- relative viability (NCI-H2085; first compound 0.1581 µM): 1.02
- relative viability (NCI-H2085; first compound 0.5 µM): 1.01
- relative viability (NCI-H358; first compound 0.005 µM): 0.571
- relative viability (NCI-H358; first compound 0.01581 µM): 0.672
- relative viability (NCI-H358; first compound 0.05 µM): 0.732
- relative viability (NCI-H358; first compound 0.1581 µM): 0.639
- relative viability (NCI-H358; first compound 0.5 µM): 0.716
- relative viability (NCI-H1944; first compound 0.005 µM): 0.918
- relative viability (NCI-H1944; first compound 0.01581 µM): 0.854
- relative viability (NCI-H1944; first compound 0.05 µM): 0.926
- relative viability (NCI-H1944; first compound 0.1581 µM): 0.924
- relative viability (NCI-H1944; first compound 0.5 µM): 0.931
- relative viability (LC-2-ad; first compound 0.005 µM): 0.917
- relative viability (LC-2-ad; first compound 0.01581 µM): 1.02
- relative viability (LC-2-ad; first compound 0.05 µM): 0.857
- relative viability (LC-2-ad; first compound 0.1581 µM): 0.972
- relative viability (LC-2-ad; first compound 0.5 µM): 0.788
- relative viability (HOP-62; first compound 0.005 µM): 1.18
- relative viability (HOP-62; first compound 0.01581 µM): 1.05
- relative viability (HOP-62; first compound 0.05 µM): 1.12
- relative viability (HOP-62; first compound 0.1581 µM): 1.11
- relative viability (HOP-62; first compound 0.5 µM): 1.06
- relative viability (LU99A; first compound 0.005 µM): 0.663
- relative viability (LU99A; first compound 0.01581 µM): 0.747
- relative viability (LU99A; first compound 0.05 µM): 0.836
- relative viability (LU99A; first compound 0.1581 µM): 0.653
- relative viability (LU99A; first compound 0.5 µM): 0.812
- relative viability (UMC-11; first compound 0.005 µM): 1.07
- relative viability (UMC-11; first compound 0.01581 µM): 1.04
- relative viability (UMC-11; first compound 0.05 µM): 1.1
- relative viability (UMC-11; first compound 0.5 µM): 1.01
- relative viability (NCI-H2009; first compound 0.005 µM): 1.2
- relative viability (NCI-H2009; first compound 0.01581 µM): 1.16
- relative viability (NCI-H2009; first compound 0.05 µM): 1.19
- relative viability (NCI-H2009; first compound 0.1581 µM): 1.19
- relative viability (NCI-H2009; first compound 0.5 µM): 1.13
- relative viability (NCI-H1666; first compound 0.005 µM): 0.973
- relative viability (NCI-H1666; first compound 0.01581 µM): 0.971
- relative viability (NCI-H1666; first compound 0.05 µM): 1.04
- relative viability (NCI-H1666; first compound 0.1581 µM): 0.963
- relative viability (NCI-H1666; first compound 0.5 µM): 0.999
- relative viability (NCI-H1793; first compound 0.005 µM): 0.559
- relative viability (NCI-H1793; first compound 0.01581 µM): 0.7
- relative viability (NCI-H1793; first compound 0.05 µM): 0.685
- relative viability (NCI-H1793; first compound 0.1581 µM): 0.479
- relative viability (NCI-H1793; first compound 0.5 µM): 0.776
- relative viability (A-427; first compound 0.005 µM): 1.03
- relative viability (A-427; first compound 0.01581 µM): 1.11
- relative viability (A-427; first compound 0.05 µM): 1.05
- relative viability (A-427; first compound 0.1581 µM): 1.06
- relative viability (A-427; first compound 0.5 µM): 1.02
- relative viability (LXF-289; first compound 0.005 µM): 0.945
- relative viability (LXF-289; first compound 0.01581 µM): 0.933
- relative viability (LXF-289; first compound 0.05 µM): 0.999
- relative viability (LXF-289; first compound 0.1581 µM): 0.986
- relative viability (LXF-289; first compound 0.5 µM): 0.963
- relative viability (NCI-H460; first compound 0.005 µM): 0.983
- relative viability (NCI-H460; first compound 0.01581 µM): 0.948
- relative viability (NCI-H460; first compound 0.05 µM): 0.972
- relative viability (NCI-H460; first compound 0.1581 µM): 1.01
- relative viability (NCI-H460; first compound 0.5 µM): 0.96
- relative viability (EPLC-272H; first compound 0.005 µM): 0.61
- relative viability (EPLC-272H; first compound 0.01581 µM): 0.76
- relative viability (EPLC-272H; first compound 0.05 µM): 0.724
- relative viability (EPLC-272H; first compound 0.1581 µM): 0.694
- relative viability (EPLC-272H; first compound 0.5 µM): 0.655
- relative viability (NCI-H2170; first compound 0.005 µM): 0.943
- relative viability (NCI-H2170; first compound 0.01581 µM): 0.982
- relative viability (NCI-H2170; first compound 0.05 µM): 0.975
- relative viability (NCI-H2170; first compound 0.1581 µM): 1.02
- relative viability (NCI-H2170; first compound 0.5 µM): 1.06
- relative viability (COR-L 105; first compound 0.005 µM): 1.06
- relative viability (COR-L 105; first compound 0.01581 µM): 1.06
- relative viability (COR-L 105; first compound 0.05 µM): 1.13
- relative viability (COR-L 105; first compound 0.1581 µM): 1.23
- relative viability (COR-L 105; first compound 0.5 µM): 1.11
- relative viability (HCC-78; first compound 0.005 µM): 0.539
- relative viability (HCC-78; first compound 0.01581 µM): 0.543
- relative viability (HCC-78; first compound 0.05 µM): 0.534
- relative viability (HCC-78; first compound 0.1581 µM): 0.556
- relative viability (HCC-78; first compound 0.5 µM): 0.546
- relative viability (SK-LU-1; first compound 0.005 µM): 0.794
- relative viability (SK-LU-1; first compound 0.01581 µM): 0.863
- relative viability (SK-LU-1; first compound 0.05 µM): 0.885
- relative viability (SK-LU-1; first compound 0.1581 µM): 0.762
- relative viability (SK-LU-1; first compound 0.5 µM): 0.829
- relative viability (NCI-H1915; first compound 0.005 µM): 1.08
- relative viability (NCI-H1915; first compound 0.01581 µM): 1.07
- relative viability (NCI-H1915; first compound 0.05 µM): 1.1
- relative viability (NCI-H1915; first compound 0.1581 µM): 1.13
- relative viability (NCI-H1915; first compound 0.5 µM): 1.09
- relative viability (HCC-366; first compound 0.005 µM): 0.934
- relative viability (HCC-366; first compound 0.01581 µM): 0.932
- relative viability (HCC-366; first compound 0.05 µM): 0.9
- relative viability (HCC-366; first compound 0.1581 µM): 0.969
- relative viability (HCC-366; first compound 0.5 µM): 0.861

— the supplement of paper PMC10307832
